# From patent US9963696B2, “Method for screening mutant microorganism overproducing target metabolite using synthetic suicide genetic circuit” (Korea University Research and Business Foundation, priority 2014, dated 2018)
# Key:
# FMN ribozyme = experiment: growth of yeast carrying the FMN suicide riboswitch with added or intracellularly produced FMN; type: cell-based, Saccharomyces cerevisiae
# Excerpt: Using the same method as described in Example 1-1, a FMN ribozyme (Proc. Natl. Acad. Sci. USA Vol. 96, pp. 3584-3589, March 1999, “Engineering precision RNA molecular switches”)
# Biochemistry was inserted into the 3′ UTR of the FCY1 gene (NC_001148.4). In order to examine whether the suicide riboswitch operates properly, an experiment for examining whether the growth rate of cells having the suicide riboswitch introduced therein changes depending on the concentration of FMN in the cells was performed.
# Specifically, FMN was externally added to the culture medium.
# In addition, the FMN1 gene was cloned into a p413GPD plasmid, which was then transformed into a strain having the FMN suicide riboswitch introduced therein so that FMN was produced in the cells. Also, the cells were treated with fluorocytosine. […] In addition, it could be seen that the absorbance at 660 nm was high due to the production of FMN (FIG. 6c).
# glmS ribozyme = experiment: growth of yeast carrying the glmS suicide riboswitch with externally added GlcN in the presence of fluorocytosine; type: cell-based, Saccharomyces cerevisiae
# Excerpt: The gene fragment to be inserted was transformed into Saccharomyces cerevisiae BY4742. In order to examine whether the suicide riboswitch was inserted into the gene of the yeast, a colony selected on an SD-URA medium (2% glucose, 0.67% yeast nitrogen base without amino acids, 0.77 g/L CSM-URA dropout mixture) plate was selected. As a result, it could be seen that the glmS ribozyme was inserted into the 3′UTR (untranslated region) of FCY1 locus in the BY4742 strain.
# In addition, in order to examine whether the suicide riboswitch operates properly, whether the growth rate of cells having the suicide riboswitch introduced therein changes depending on the concentration of GlcN6P in the cells was examined. In the presence of fluorocytosine, glucosamine (GlcN) was externally added to the culture medium so that it was converted to GlcN6P by intracellular hexokinase.
# A BY4742 FGU strain and other strains, which have a suicide riboswitch introduced therein, were cultured in minimal media. For culture of BY4742 FGU, SD-URA medium supplemented with 5 mg/L of fluorocytosine was used. At 2 days after seeding, absorbance was used. To screen the GFA1 mutant library, medium supplemented with 10 mg/L of fluorocytosine was used, and to screen the HAD phosphatase library, medium supplemented with 20 mg/L of fluorocytosine was used (FIG. 2c).
# [1] = FMN produced in the cells from FMN1 on p413GPD plasmid, treated with fluorocytosine
Compound,"absorbance (FMN ribozyme; FMN externally added to culture medium, increasing concentration)",absorbance at 660 nm (FMN ribozyme; [1]),growth rate of the cells (FMN ribozyme; [1]),"growth rate of cells having the suicide riboswitch (glmS ribozyme; GlcN externally added to culture medium, in the presence of fluorocytosine, increasing GlcN6P concentration)",absorbance at 660 nm (glmS ribozyme; various concentrations of added GlcN)
"Cc1cc2nc3c(=O)[nH]c(=O)nc-3n(C[C@H](O)[C@H](O)[C@H](O)COP(=O)(O)O)c2cc1C [FMN, flavin mononucleotide]",the absorbance also increased,high,the growth rate of the cells was high,,
"N[C@H]1C(O)O[C@H](CO)[C@@H](O)[C@@H]1O (some centres unmarked) [GlcN, glucosamine]",,,,the growth rate of the cells increased,changed depending on the concentration of GlcN
